Test results as given in publication PMC11768839 (Viruses, 2024).
Values joined by “and” are separate entries in the source; they are usually repeats but may differ in a detail not shown here. Identical values can stand only once.

Assays:
[1] = Cytotoxicity in Huh7 cells (alamarBlue); assay type: cell-based; conditions: human, listed with HCoV-229E qPCR assay
HAdV-C5 = assay: Adenovirus HAdV-C5 virus yield in A549 cells (endpoint dilution); assay type: cell-based, human adenovirus serotype 5; conditions: 5 µM, HAdV-C5 100 IU/cell, 24 hpi
SARS-CoV-2 [2] = assay type: cell-based
[3] = system: SARS-CoV-2 nucleocapsid (N) protein; assay: SARS-CoV-2 nucleocapsid (N) protein expression by western blot; assay type: cell-based; conditions: SARS-CoV-2 SB2, Huh7 cells, immunoblot
HCoV-229E [4] = assay: HCoV-229E intracellular viral RNA accumulation after delayed compound addition; assay type: cell-based; conditions: compound added 16 hpi, 9 h after addition, MOI 2, Huh7 cells
Pharmacokinetics in mice = assay type: in vivo
[5] = assay type: in vivo
HCoV-OC43 [6] = assay: HCoV-OC43 replication in human lung organoids (RTqPCR of media); assay type: cell-based; conditions: 2.5 µM added post-infection, MOI of 2, 3 or 6 days post-infection
SARS-CoV-2 [7] = assay: SARS-CoV-2 replication in human lung organoids (RTqPCR of media); assay type: cell-based; conditions: 2.5 µM added post-infection, SB2, MOI of 2, 3 or 6 days post-infection
HIV-1 = system: HIV-1; set-up: method as in earlier work; conditions: HIV-1 replication; cited from earlier work
Influenza A Virus (PR8) [8] = assay: Influenza PR8 TCID50 assay (infectivity) in A549 cells; conditions: MOI of 2, A549 cells
HCoV-OC43 [9] = assay: HCoV-OC43 viral release into media (RTqPCR) in Huh7 cells; conditions: 2.5 µM, MOI of 2, 24 h
HCoV-229E [10] = assay: HCoV-229E infectious virus yield by TCID50 assay in Huh7 cells; conditions: dose reducing HCoV-229E RNA in media by 50% (EC50, 1.2 µM), 24 h
Coronavirus (HCoV-229E) = assay: HCoV-229E qPCR assay (viral RNA release into media) in Huh7 cells
Influenza A Virus (PR8) [11] = assay: Influenza PR8 qPCR assay (viral RNA release into media) in A549 cells
in vitro = conditions: human

SMILES: O=[N+]([O-])c1ccc(Nc2ccc(Cl)c(C(F)(F)F)c2)c2nonc12 [Compound 5342191, N-[4-chloro-3-(trifluoromethyl)phenyl]-7-nitro-2,1,3-benzoxadiazol-4-amine]
- CC50 ([1]; MOI of 0.01): > 1000 nM
- CC50 ([1]; MOI of 2): 34000 ± 755 nM
- reduction in virus yield (maximal effect) (HAdV-C5): ~ 1000 fold
- suppression of the release of SARS-CoV-2 (SARS-CoV-2 [2]): approximately 80%
- reduction of SARS-CoV-2 nucleocapsid (N) protein expression [3]: approximately 90%
- reduction of viral genomic RNA accumulation (HCoV-229E [4]): ~ 50%
- oral bioavailability (Pharmacokinetics in mice): orally bioavailable
- blood concentration maintained (Pharmacokinetics in mice; oral dose of 30 mg/kg, up to 8 h after administration, 30 mg/kg): 2 µg/mL and 5.5 µM
- body weight / gross necroscopy findings ([5]; 5342191-treated mice): absence of significant changes in body weight
- tolerability ([5]; daily oral dose of 40 mg/kg over 7 days, mice): well tolerated
- HCoV-OC43 replication in human lung organoids (HCoV-OC43 [6]): effectively blocked
- SARS-CoV-2 replication in human lung organoids (SARS-CoV-2 [7]): effectively blocked
- effect on cell metabolism (A549 cells): limited effect
- EC50 (HIV-1): 750 nM
- EC90 (HIV-1): 1750 nM
- EC50 (Influenza A Virus (PR8) [8]): 75 ± 17 nM
- EC90 (Influenza A Virus (PR8) [8]): 99 ± 8 nM
- inhibition of viral release into the media (HCoV-OC43 [9]): over 90%
- reduction in infectious virus yield (HCoV-229E [10]): over 90%
- EC50 (Coronavirus (HCoV-229E); MOI of 0.01): 73 ± 13 nM
- EC90 (Coronavirus (HCoV-229E); MOI of 0.01): 857 ± 56 nM
- EC50 (Coronavirus (HCoV-229E); MOI of 2, Huh7 cells): 1200 ± 196 nM
- EC90 (Coronavirus (HCoV-229E); MOI of 2, Huh7 cells): 2500 ± 282 nM
- EC50 (Influenza A Virus (PR8) [11]; MOI of 0.01): 47 ± 13 nM
- EC90 (Influenza A Virus (PR8) [11]; MOI of 0.01): 149 ± 55 nM
- EC50 (Influenza A Virus (PR8) [11]; MOI of 2): 51 ± 42 nM
- EC90 (Influenza A Virus (PR8) [11]; MOI of 2): 104 ± 23 nM

SMILES: CCOC(=O)C1=C[C@@H](OC(CC)CC)[C@H](NC(C)=O)[C@@H](N)C1 [Oseltamivir]
- CC50 (in vitro): > 100000 nM
- EC50 (Influenza A Virus (PR8) [8]): 257 ± 40 nM
- EC90 (Influenza A Virus (PR8) [8]): 1500 ± 209 nM

SMILES: CC(C)C(=O)OC[C@H]1O[C@@H](n2ccc(NO)nc2=O)[C@H](O)[C@@H]1O [Molnupiravir, reference compound]
- CC50 ([1]; MOI of 2): > 100000 nM
- EC50 (Coronavirus (HCoV-229E); MOI of 2, Huh7 cells): 25 ± 9 nM
- EC90 (Coronavirus (HCoV-229E); MOI of 2, Huh7 cells): 137 ± 23 nM

SMILES: NC(=O)c1nc(F)c[nH]c1=O [Favipiravir]
- CC50 (in vitro): > 100000 nM
- EC50 (Influenza A Virus (PR8) [8]): 1200 ± 135 nM
- EC90 (Influenza A Virus (PR8) [8]): 6200 ± 332 nM

SMILES: CC(C)(C)NC(=O)N[C@H](C(=O)N1C[C@H]2[C@@H]([C@H]1C(=O)NC(CC1CCC1)C(=O)C(N)=O)C2(C)C)C(C)(C)C (stereo partly drawn) [Boceprevir, reference compound]
- CC50 ([1]; MOI of 2): > 100000 nM
- EC50 (Coronavirus (HCoV-229E); MOI of 2, Huh7 cells): 111 ± 24 nM
- EC90 (Coronavirus (HCoV-229E); MOI of 2, Huh7 cells): 1200 ± 95 nM
